Drawing on patent publication US8084621B2, “3-Pyrrolo[b]cyclohexylene-2-dihydroindolinone derivatives and uses thereof” (Jiangsu Simcere Pharmaceutical R&D Co. Ltd., priority 2006, dated 2011), this text covers inhibition and IC50 for 11 molecules.

Structures are written as SMILES.

What all share (type): cell-based
The subject of experiment [1] is Human Pancreatic Carcinoma Cell Line (BXPC-3). As to the kind of experiment: Tumor cell proliferation assay (MTT), BXPC-3. Conditions: for inhibition at 10 µM: concentration of 10^−5 mol/L, preliminary screening, 72 hours, read-out: Inhibition rate % BXPC-3; for IC50: secondary screening, 48 hours.
Experiment [2] has as its system Human Gastric Cancer Cell Line (BGC). The experiment is described as follows: Tumor cell proliferation assay (MTT), BGC. Conditions: for inhibition at 10 µM: concentration of 10^−5 mol/L, preliminary screening, 72 hours, read-out: Inhibition rate % BGC; for IC50: secondary screening, 48 hours.
Experiment [3] relates to Human Colon Cancer Cell Line (HT-29). As to the kind of experiment: Tumor cell proliferation assay (MTT), HT29. Conditions: for inhibition at 10 µM: concentration of 10^−5 mol/L, preliminary screening, 72 hours, read-out: Inhibition rate % HT29; for IC50: secondary screening, 48 hours.
Experiment [4] has as its system Human Pancreatic Carcinoma Cells (PANC-1). As to the kind of experiment: Tumor cell proliferation assay (MTT), PANC-1. The settings on record: for inhibition at 10 µM: concentration of 10^−5 mol/L, preliminary screening, 72 hours, read-out: Inhibition rate % PANC-1; for IC50: secondary screening, 48 hours.
In experiment [5] the test system is Human Ovarian Cancer Cell Line (SK-OV-3). As to the kind of experiment: Tumor cell proliferation assay (MTT), SK-OV-3. The settings on record: for inhibition at 10 µM: concentration of 10^−5 mol/L, preliminary screening, 72 hours, read-out: Inhibition rate % SK-OV-3; for IC50: secondary screening, 48 hours. An excerpt: The assay used generally is the blue tetrazolium bromide (MTT) method. […] The amount of formazan can be detected by the microplate reader through the absorption value at 570 nm. The amount of formazan product generated is proportional to the number of living cells in the sample, so the OD value may reflect the number of living cells and the ability of a test drug to inhibit or kill cells. The MTT assay may be used in determining the ability of different compounds of the present invention to inhibit one or more cancer cells proliferation. Similar assays can be designed along the same lines for any cancer cell using techniques well known in the art.
The assay used generally is the blue tetrazolium bromide (MTT) method. […] Intracellular purple formazan salt crystals can be solved in DMSO and the absorption value at 570 nm is detected by the microplate reader, then the number of living cells can be detected indirectly. So MTT assay may be used to determine the ability of a compound of the present invention to inhibit cell proliferation. Similar assays can be designed along the same lines for any cancer cell using techniques well known in the art.
2.2.13 Human Ovarian Cancer Cell Line (SK-OV-3).
The cells of 2.2.11, 2.2.12, 2.2.13 were cultured in MC COYS 5-A medium containing 12% fetal bovine serum in the condition of 37° C., 5% CO2.
2.3.1 Cell seeding: Trypsinize the cell by 0.05% trypsin-EDTA and add RPMI 1640 medium (DMEM or 5A) containing 12% calf serum. Count the number, then dilute to 1.67×10^4/ml. Add 180 ul/well to the 96 well plate (3000 cells/well).
2.3.2 Culture: cells are incubated for 24 hours at 37° C. under 5% CO2.
2.3.3 Preliminary screening: The compounds are firstly diluted to 0.1 mol/L with DMSO, and then diluted to three concentrations of 10^−5 mol/L, 10^−6 mol/L and 10^−7 mol/L. Add 20 ul test compounds to the 96 well plate and incubate for 72 hours. Each group has three parallel wells and all experiments repeat three times. Each inhibition ratio is calculated, then an average value of three times is taken as the measured value. 2.3.4 Staining 2.3.4.1 Attached cell: add 20 ul/well MTT to the 96-well plates; incubate for 4 hours in the incubator. Pour out the culture medium in the well and add 100 ul/well DMSO. Shake the plate for 5 min. 2.3.4.2 Suspension cell: add 20 ul/well MTT to the 96-well plates; incubate for 4 hours in the incubator. Add 50 ul/well 20% SDS and incubate for overnight in the incubator. 2.3.5 Reading the plates: read the absorbance A570-A630 with the Infinite M200 microtiter plate reader. Calculate the inhibition ratio of the test compounds. 2.3.6 Secondary screening: the compounds whose inhibition ratio is greater than 50% at the concentrations of 10^−5 mol/L in the preliminary screening will be picked out for Secondary screening. Dilute these compounds to ten concentrations: 10^−5 mol/L, 0.5×10^−5 mol/L, 10^−6 mol/L, 0.8×10^−6 mol/L, 0.6×10^−6 mol/L, 0.4×10^−6 mol/L, 0.2×10^−6 mol/L, 10^−7 mol/L, 0.8×10^−7 mol/L and 0.4×10^−7 mol/L. Add 20 ul test compound solution to the 96 well plate and incubate for 48 hours. Each group has three parallel wells and all experiments repeat for three times. Read the plates and calculate the inhibition ratio according to the preliminary screening method. 2.3.7 Calculate the Inhibition Ratio of Cell Proliferation and the IC50
According to the inhibition ratio of cell proliferation at the different concentrations of the compound, inhibition ratio of 50% of the test compound is calculated through the logarithm of the concentration of the compound with the Logit [I] linear regression, and an average value of three times is taken as the measured value of a sample.

As to `Cc1[nH]c2c(c1C(=O)NCCCN(C)C)CCC/C2=C1/C(=O)Nc2ccc(Cl)cc21` [I-7, N-(3-(dimethylamino)propyl)-2-methyl-7-[1,2-dihydro-5-chloro-2-oxo-3H-indol-(Z)-3-ylidene]-4,5,6,7-tetrahydro-1H-indole-3-carboxamide], the inhibition (usually the percentage by which the read-out fell short of the control) at 10 µM worked out at 69.5% in experiment [1]; 75.9% in experiment [2]; 78.4% in experiment [3]; 51.8% in experiment [4]; 63.3% in experiment [5]. The IC50 (as a rule, the concentration that gives 50% inhibition) is 3430 nM in experiment [1]; 2760 nM in experiment [2]; 3060 nM in experiment [3]; 6630 nM in experiment [4]; 3040 nM in experiment [5].
For the molecule `Cc1[nH]c2c(c1C(=O)NCC(O)CN1CCCC1)CCC/C2=C1/C(=O)Nc2ccc(F)cc21` (centres unmarked) [I-71, N-(2-hydroxy-3-(pyrrolidin-1-yl)propyl)-2-methyl-7-[1,2-dihydro-5-fluoro-2-oxo-3H-indol-(Z)-3-ylidene]-4,5,6,7-tetrahydro-1H-indole-3-carboxamide], the inhibition at 10 µM was 98.9% in experiment [1]; 82.3% in experiment [2]; 95% in experiment [3]; 97.4% in experiment [4]; 91.7% in experiment [5]. For the same molecule, the IC50 in experiment [1] is 2730 nM; in experiment [2], 1420 nM; in experiment [3], 790 nM; in experiment [4] it was 1480 nM; in experiment [5], 1540 nM.
Turning to `Cc1[nH]c2c(c1C(=O)NCC(O)CN1CCOCC1)CCC/C2=C1/C(=O)Nc2ccc(F)cc21` (centres unmarked) [I-68, N-(2-hydroxy-3-morpholinopropyl)-2-methyl-7-[1,2-dihydro-5-fluoro-2-oxo-3H-indol-(Z)-3-ylidene]-4,5,6,7-tetrahydro-1H-indole-3-carboxamide], the inhibition at 10 µM in experiment [1] came to 60.7%; in experiment [2], 55.4%; in experiment [3], 31.3%; in experiment [4] it was 34.3%; in experiment [5], 11.1%. Moreover, the figures for the IC50 in experiment [1] and in experiment [2] were 6490 nM and 7590 nM, respectively.
Turning to `CCN(CC)CCNC(=O)c1c(C)[nH]c2c1CCC/C2=C1/C(=O)Nc2ccc(C)cc21` [I-4, N-(2-(diethylamino)ethyl)-2-methyl-7-[1,2-dihydro-5-methyl-2-oxo-3H-indol-(Z)-3-ylidene]-4,5,6,7-tetrahydro-1H-indole-3-carboxamide], the inhibition at 10 µM in experiment [1] stood at 78.4%; in experiment [3], 89.9%; in experiment [5], 57.1%. The IC50 in experiment [5] was found to be 5270 nM.
Consider `CCN(CC)CCNC(=O)c1c(C)[nH]c2c1CCC/C2=C1/C(=O)Nc2ccc(Cl)cc21` [I-3, N-(2-(diethylamino)ethyl)-2-methyl-7-[1,2-dihydro-5-chloro-2-oxo-3H-indol-(Z)-3-ylidene]-4,5,6,7-tetrahydro-1H-indole-3-carboxamide], for which the inhibition at 10 µM was 96% in experiment [1]; 78.1% in experiment [2]; 65.1% in experiment [3]; 69.8% in experiment [4]; 86.7% in experiment [5]. Further, the half-inhibitory concentration (IC50) was found to be 1950 nM in experiment [1]; 2030 nM in experiment [2]; 6480 nM in experiment [3]; 1940 nM in experiment [4]; 2990 nM in experiment [5].
With `CCN(CC)CCNC(=O)c1c(C)[nH]c2c1CCC/C2=C1/C(=O)Nc2ccc(F)cc21` [I-2, N-(2-(diethylamino)ethyl)-2-methyl-7-[1,2-dihydro-5-fluoro-2-oxo-3H-indol-(Z)-3-ylidene]-4,5,6,7-tetrahydro-1H-indole-3-carboxamide], the inhibition at 10 µM in experiment [1] came out at 79.4%; in experiment [2] it was 71%; in experiment [3] it was 97.4%; in experiment [4], 70.6%; in experiment [5] it was 92.2%. Besides, the results for the IC50 in experiment [1], in experiment [2] and in experiment [3] were 520 nM, 6110 nM and 1200 nM, respectively.
As for `Cc1[nH]c2c(c1C(=O)NCC(O)CN1CCCCC1)CCC/C2=C1/C(=O)Nc2ccc(F)cc21` (centres unmarked) [I-74, N-(2-hydroxy-3-(piperidin-1-yl)propyl)-2-methyl-7-[1,2-dihydro-5-fluoro-2-oxo-3H-indol-(Z)-3-ylidene]-4,5,6,7-tetrahydro-1H-indole-3-carboxamide], the inhibition at 10 µM in experiment [1] is 32.1%; in experiment [2], 60.2%; in experiment [3], 92.2%; in experiment [4], 93.6%; in experiment [5], 88.2%. Also, the figures for the IC50 in experiment [1], in experiment [2] and in experiment [3] were 240 nM, 7950 nM and 420 nM, respectively.
`CCN(CC)CCNC(=O)c1c(C)[nH]c2c1CCC/C2=C1/C(=O)Nc2ccccc21` [I-5, N-(2-(diethylamino)ethyl)-2-methyl-7-[1,2-dihydro-2-oxo-3H-indol-(Z)-3-ylidene]-4,5,6,7-tetrahydro-1H-indole-3-carboxamide]: the inhibition at 10 µM in experiment [1] came out at 89.4%; in experiment [2], 64%; in experiment [3], 91.5%; in experiment [4], 47.8%; in experiment [5] it was 77.5%. The IC50 in experiment [1] was 520 nM; in experiment [2], 6730 nM; in experiment [3], 540 nM.
On to `Cc1[nH]c2c(c1C(=O)NCC(O)CN1CCCC1)CCC/C2=C1/C(=O)Nc2ccccc21` (centres unmarked) [I-70, N-(2-hydroxy-3-(pyrrolidin-1-yl)propyl)-2-methyl-7-[1,2-dihydro-2-oxo-3H-indol-(Z)-3-ylidene]-4,5,6,7-tetrahydro-1H-indole-3-carboxamide], for which the inhibition at 10 µM in experiment [1] stood at 98.7%; in experiment [2], 84.8%; in experiment [3] it was 94.7%; in experiment [4], 97.4%; in experiment [5], 95.6%. Moreover, the IC50 in experiment [1] was 970 nM; in experiment [2] it was 1490 nM; in experiment [3], 930 nM; in experiment [4], 1630 nM; in experiment [5], 1140 nM.
Consider `Cc1[nH]c2c(c1C(=O)NCCO)CCC/C2=C1/C(=O)Nc2ccc(F)cc21` [I-9, N-(2-hydroxyethyl)-2-methyl-7-[1,2-dihydro-5-fluoro-2-oxo-3H-indol-(Z)-3-ylidene]-4,5,6,7-tetrahydro-1H-indole-3-carboxamide], for which the inhibition at 10 µM worked out at 63.7% in experiment [1], 42.1% in experiment [2], 66.7% in experiment [3] and 0% in experiment [4].
The corresponding values for `Cc1[nH]c2c(c1C(=O)N1CCN(C)CC1)CCC/C2=C1/C(=O)Nc2ccc(F)cc21` [I-14, 2-methyl-3-(4-methylpiperazine-1-carbonyl)-7-[1,2-dihydro-5-fluoro-2-oxo-3H-indol-(Z)-3-ylidene]-4,5,6,7-tetrahydro-1H-indole] are 68.3%, 39.4%, 43.3% and 14%.
